# According to patent US9499868B2, “Determination of single nucleotide polymorphisms useful to predict response for glatiramer acetate” (TEVA PHARMACEUTICAL INDUSTRIES, LTD., priority 2011, dated 2016):
# Like-named read-outs stand apart in the source and are kept apart here.
# Key:
# [1] = test system: Relapsing-remitting multiple sclerosis patients (FORTE cohort); assay: Annualized relapse rate in FORTE cohort patients genetically predicted as responders/non-responders by predictive models; type: in vivo, human
# Method: Relapsing-remitting multiple sclerosis patients were treated with either 20 mg GA or 40 mg GA daily in the Teva FORTE clinical trial (www.medicalnewstoday.com/articles/48863.php). Blood samples were drawn from each subject that signed an informed consent for the pharmacogenetic study and analyzed as described below.
# A clinical relapse was defined as the appearance of one or more new neurological abnormalities or the reappearance of one or more previously observed neurological abnormalities.
# To find genotypic profiles that discriminate responders (R) from the non-responders (NR) to the treatment, we used a backward stepwise logistic regression procedure on the SNPs that emerged significant using the narrow definition (e.g., at p-value=10^−4 or lower). Other models were generated based on combinatorial optimization heuristics. Once a pool of models was created, selected models were chosen based on the low value of Akaike's Information Criterion (AIC) and low number SNPs in the model. The model chosen in the previous step went through “Leave one out” cross validation, searching for high values of the Area Under the ROC curve.
# The response probability p(Response) of a specific patient was calculated according to the tables and formulas indicated for each specific model.
# Patients with p(Response) above 0.5 were predicted to be responders and patients with p(Response) below 0.5 were predicted to be non-responders. When the model was retrospectively applied to the full cohort of 599 FORTE patients, we observed that the annualized relapse rate (ARR) in patients genetically predicted as responders was reduced by 62% compared to all patients, and by 76% compared to non-responders (p<0.0001). When we applied the model retrospectively to a second independent cohort of 79 patients, the model could identify subpopulations genetically predicted to be responders and non-responders with respectively lower (for responders) and higher (for non-responders) relapse rate. In the placebo-treated arm no specific pattern could be observed.
# The models were retrospectively applied to the full cohort of 599 FORTE patients using different predictive thresholds. The ratios between the Annualized Relapse Rate (ARR) of genetically predicted responder patients (R) compared to the average ARR in genetically predicted non-responder patients (NR), and the ratios between the average ARE observed in the genetically predicted responder patients (R) compared to average ARR in the whole study population (All), according to each predictive threshold or two predictive thresholds, are presented in table 37. […]
# [2] = test system: multiple sclerosis patients (European/Canadian study); assay: Annualized relapse rate in European/Canadian study patients genetically predicted as responders/non-responders by FM1 model; type: in vivo, human; conditions: 0.8 threshold
# Excerpt: In comparison, the average ARR in either placebo-treated patients or non treated patients (from European/Canadian study and CORAL, respectively) genetically predicted as responders was −7% and 26% lower, respectively, than in patients predicted as Non-Responders and 10% and 11% lower than in the whole study population. The reduction in average ARR by GA over placebo-treated patients in the responders population in the European/Canadian study was 79%.
# [3] = test system: RRMS subjects; conditions: cited from earlier work
# [4] = test system: RRMS patients; conditions: cited from earlier work
# [5] = FM1 model, 0.8 threshold, FORTE
# [6] = model GM2068, FORTE cohort, whole study population (All)
# [7] = model GM2090, FORTE cohort, whole study population (All)
# [8] = model GM2094, FORTE cohort, whole study population (All)
# [9] = model GM2277, FORTE cohort, whole study population (All)
substance,measurement,setting,value
Glatiramer acetate [GA],average ARR in GA-treated predicted responders lower than in patients predicted as non-responders,[1]; [5],76%
same,average ARR in GA-treated predicted responders lower than in the whole study population,[1]; [5],64%
same,reduction of annualized relapse rate (ARR) in genetically predicted responders compared to all patients,"[1]; FM1 model, p(Response) threshold 0.5, full cohort of 599 FORTE patients",62%
same,reduction of annualized relapse rate (ARR) in genetically predicted responders compared to non-responders,"[1]; FM1 model, p(Response) threshold 0.5, full cohort of 599 FORTE patients, p<0.0001",76%
same,ARR Vs. all,"[1]; model FM1, response prediction All",100%
same,ARR,"[1]; model FM1, response prediction All (whole FORTE study population, threshold NA)",0.241
same,ARR Vs. all,"[1]; model FM1a, response prediction All",100%
same,ARR,"[1]; model FM1a, response prediction All (whole FORTE study population, threshold NA)",0.245
same,ARR Vs. all,"[1]; model FM2, response prediction All",100%
same,ARR,"[1]; model FM2, response prediction All (whole FORTE study population, threshold NA)",0.245
same,ARR Vs. all,"[1]; model GM1003, response prediction All",100%
same,ARR,"[1]; model GM1003, response prediction All (whole FORTE study population, threshold NA)",0.26
same,ARR Vs. all,"[1]; model GM1006, whole study population (All)",100%
same,ARR,"[1]; model GM1006, whole study population (All), FORTE cohort, 599 patients",0.253
same,ARR Vs. all,"[1]; model GM1011, whole study population (All)",100%
same,ARR,"[1]; model GM1011, whole study population (All), FORTE cohort, 599 patients",0.256
same,ARR Vs. all,"[1]; model GM1012, whole study population (All)",100%
same,ARR,"[1]; model GM1012, whole study population (All), FORTE cohort, 599 patients",0.251
same,ARR Vs. all,"[1]; model GM2004, whole study population (All)",100%
same,ARR,"[1]; model GM2004, whole study population (All), FORTE cohort, 599 patients",0.255
same,ARR,[1]; [6],0.256
same,ARR Vs. all,[1]; [6],100%
same,ARR,[1]; [7],0.254
same,ARR Vs. all,[1]; [7],100%
same,ARR,[1]; [8],0.251
same,ARR Vs. all,[1]; [8],100%
same,ARR,[1]; [9],0.258
same,ARR Vs. all,[1]; [9],100%
same,ARR,"[1]; model GM2338, response prediction All (whole study population), threshold NA, FORTE cohort",0.251
same,ARR Vs. all,"[1]; model GM2338, response prediction All, threshold NA, FORTE cohort",100%
same,ARR,"[1]; model GM3102, response prediction All (whole study population), threshold NA, FORTE cohort",0.263
same,ARR Vs. all,"[1]; model GM3102, response prediction All, threshold NA, FORTE cohort",100%
same,ARR,"[1]; model GM3150, response prediction All (whole study population), threshold NA, FORTE cohort",0.26
same,ARR Vs. all,"[1]; model GM3150, response prediction All, threshold NA, FORTE cohort",100%
same,ARR,"[1]; model GM3332, response prediction All (whole study population), threshold NA, FORTE cohort",0.262
same,ARR Vs. all,"[1]; model GM3332, response prediction All, threshold NA, FORTE cohort",100%
same,average ARR in GA-treated predicted responders lower than in patients predicted as non-responders,[2],81%
same,average ARR in GA-treated predicted responders lower than in the whole study population,[2],77%
same,reduction in average ARR by GA over placebo-treated patients in the responders population,[2],79%
same,tolerability,[3]; daily standard dose of 20 mg,generally well tolerated
same,reduction of relapse rate compared with placebo,"[3]; largest controlled study, GA 20 mg, RRMS",32%
same,relapse rate,"[3]; largest controlled study, under GA 20 mg (1.98 under placebo)",1.34
same,median cumulative number of Gd-enhancing lesions,"[3]; over 9 months of treatment, 20 mg group (17 under placebo)",11 lesions
same,response rate,[4]; DRB1*1501 carriers,81.8%
same,response rate,[4]; non-carriers of DRB1*1501,39.4%
same,response rate,[4]; whole study population,50%
